Data published in patent publication US6335320B1, “Method of treating fibrotic conditions” (UCB S.A., priority 1998, dated 2002).
No end group written: not given here.

Columns and labels:
[1] = system: anti-alpha SM-1; conditions: cited from earlier work
[2] = system: SM cells; conditions: culture of SM cells, microinjection; cited from earlier work
[3] = system: α-SM actin; assay: Effect on α-SM actin biosynthesis (S35 methionine incorporation) in VSMC; type: cell-based, rat; conditions: for α-SM actin synthesis, control standardised at 100%: 2 mg/ml, VSMC, 37° C.
Method: In this table, the values of the control conditions were standardised at a 100% starting value (time=0 hour).

[4] = system: splinted wound; assay: Open splinted wound contraction model in rats; type: in vivo, rat; conditions: topical
Text: Test upon an open “splinted Wound” in Rats
In order to measure exclusively contraction, the inventors have developed the “splinted wound” model, based upon the technique of Gabbiani G. et al., J. of Exp.
The wound 2×2 cm in the back of the rat is fixed by suturing its margins to a plastic frame using suture thread (Supramid, metric 3, Braun, Emmenbrücke) on day 0. […] The peptidic product is applied on the open wound starting at the 7th day usually for 3 days and releases the suture of the frame, thus allowing an accelerated contraction which in controls reduces the area of the wound of about ⅔ within 48 hours.
We have measured morphometrically the contraction of the wound (5 rats per group) by means of planimetry (KS 400, Zeiss Vision) and studied the tissues morphologically by means of histological techniques, immunofluorescence with the α-SM actin antibody according to a method described in Gabbiani et al., J. Exp. Med. 1972 (p.15, line 8) and Darby et al. Lab. Invest. 1990 (p.1, line 24-25).
Table 3 presents the wound size (surface in cm^2) measured on day 3 as a percentage of the wound size measured on day 0.
The rats were treated with the peptidic product of example 1 at a dose of 3 mg/ml (mg of peptidic product, ml of 0.9% NaCl).

## AcEEEDSTALVC (Ac-EEEDSTALVC) [amino terminal decapeptide of α-SM actin]
[1]
  blocking effects on the binding of monoclonal antibody anti-alpha SM-1: blocking effects

## Acetyl-glutamyl-glutamyl-glutamyl-aspartyl (Ac-EEED) [AcEEED]
[2]
  incorporation of α-SM actin into stress fibers: inhibits the incorporation of α-SM actin into stress fibers

## ε-(Acetyl Glu Glu Glu Asp) Lys Arg Gln Ile Lys Ile Trp Phe Gln Asn Arg Arg Met Lys Trp Lys Lys OH [example 1, ε-(AcEEED)-K-(pAntp[43-58])]
[3]; Experiment 1, 20 hours
  α-SM actin synthesis, control standardised at 100%: 72%
[3]; Experiment 2, 20 hours
  α-SM actin synthesis, control standardised at 100%: 56%
[3]; Experiment 3, 20 hours
  α-SM actin synthesis, control standardised at 100%: 44%
[3]; Experiment 4, 20 hours
  α-SM actin synthesis, control standardised at 100%: 48%
[3]; Mean of 4 experiments, 20 hours
  α-SM actin synthesis, control standardised at 100%: 55%
[3]; mean value for the 4 experiments, 2 mg/ml culture medium
  decrease of the α-SM actin synthesis compared to control conditions: 55%
[4]; 3 mg/ml
  contractile activity of the wound: decrease in contractile activity
[4]; 3 mg/ml in 0.9% NaCl, 5 rats per group
  Wound surface: wound size on day 3 as a percentage of the wound size on day 0: 48.42 ± 2.02%
